Reference: patent publication US20200237864A1, “METHODS AND COMPOSITIONS FOR TREATING FIBROTIC INTERSTITIAL LUNG DISEASE” (INSERM (INSTITUT NATIONAL DE LA SANTÉ ET DE LA RECHERCHE …, priority 2017, published 2020)

Assays:
[1] = system: Primary human normal lung fibroblasts (CCD-16Lu cells); assay: Lung fibroblast cell growth assay; type: cell-based; conditions: CK666 100 μM vs DMSO, Day 4
Experimental: (§1) Primary human normal lung fibroblasts (CCD-16Lu cells, American Type Culture Collection, Manassas, Va., USA) were grown in DMEM-Glutamax medium supplemented with 10% fetal bovine serum and penicillin/streptomycin (Thermofisher, Villebon-sur-Yvette, France), at 37° C. with 5% CO2. Experiments were performed between passages 7 and 12, when cells reached 70% confluency. Fibroblasts were treated either with 100 μM CK666 (Tocris, Lille, France) or 1/1000 dimethylsulfoxide (DMSO, Sigma,St Quentin Fallavier, France) as a control. In a second set of experiments, fibroblasts were transfected with 4 nM of either short interfering RNAs targeting ARPC2 (siARPC2, Silencer Select, Thermofisher) or control RNAs (siControl), using the Lipofectamine RNAimax reagent (Thermofisher). For cell growth assays, 50 000 cells/well were plated in 12-well plates, grown for 4 days, detached with 5% trypsin and counted using Kova Glasstic counting slides (Thermofisher). […] Cell proteins were recovered in 100 μl lysis buffer (50 mM Tris HCl pH7.4, 150 mM NaCl, 0.1% SDS, 0.5% sodium deoxycholate, 1% Triton X-100) with 1% protease inhibitor (P8340, Sigma) and quantitated by the BiCinchoninic acid Assay (Pierce, Thermofisher); mRNA was extracted using the GeneJET RNA Purification Kit (Thermofisher).

[2] = system: G/F actin ratio in lung fibroblasts (CCD-16Lu cells); assay: Determination of G- and F-actin levels in lung fibroblasts; type: cell-based, human
Experimental: as §1, with “In a second set of experiments, fibroblasts were transfected with 4 nM of either short interfering RNAs targeting ARPC2 (siARPC2, Silencer Select, Thermofisher) or control RNAs (siControl), using the Lipofectamine RNAimax reagent (Thermofisher).” left out
500 000 cells were seeded in 75 cm2 flasks and treated with either CK666 or DMSO for 24 h. […] Supernatant (G-actin) and pellet (F-actin) samples were analyzed by immunoblotting on polyvinylidene fluoride membranes using a beta-actin primary antibody (Sigma).

[3] = system: ACTA2; assay: Spontaneous and TGFB1-induced ACTA2 expression in lung fibroblasts (RTPCR, cell-based ELISA); parameters: species or system human
Experimental: (§2) Primary human normal lung fibroblasts (CCD-16Lu cells, American Type Culture Collection, Manassas, Va., USA) were grown in DMEM-Glutamax medium supplemented with 10% fetal bovine serum and penicillin/streptomycin (Thermofisher, Villebon-sur-Yvette, France), at 37° C. with 5% CO2. Experiments were performed between passages 7 and 12, when cells reached 70% confluency. Fibroblasts were treated either with 100 μM CK666 (Tocris, Lille, France) or 1/1000 dimethylsulfoxide (DMSO, Sigma,St Quentin Fallavier, France) as a control. In a second set of experiments, fibroblasts were transfected with 4 nM of either short interfering RNAs targeting ARPC2 (siARPC2, Silencer Select, Thermofisher) or control RNAs (siControl), using the Lipofectamine RNAimax reagent (Thermofisher). For cell growth assays, 50 000 cells/well were plated in 12-well plates, grown for 4 days, detached with 5% trypsin and counted using Kova Glasstic counting slides (Thermofisher). For differentiation assays, cells were plated in 12-well plates, grown to 70% confluency, treated for 24 h with siControl or siARPC2 when appropriate, starved of serum for 24 h, and treated with either CK666 or DMSO 30 minutes before treatment with either 5 ng/ml recombinant human TGFB1 (R&D Systems, Lille, France) of control solvent for 48h. Cell proteins were recovered in 100 μl lysis buffer (50 mM Tris HCl pH7.4, 150 mM NaCl, 0.1% SDS, 0.5% sodium deoxycholate, 1% Triton X-100) with 1% protease inhibitor (P8340, Sigma) and quantitated by the BiCinchoninic acid Assay (Pierce, Thermofisher); mRNA was extracted using the GeneJET RNA Purification Kit (Thermofisher).
For cell-based ELISA, cells were grown in 12-well plates, fixed with 4% paraformaldehyde for 15 min, permeabilized with 0.5% Triton X-100 in PBS, blocked with 1% bovine albumin, incubated overnight at 4° C. with an ACTA2 primary antibody (A2547, dilution 1/1000, Sigma), and sequentially incubated with an anti-mouse biotinylated antibody (Vector, dilution 1/400), streptavidin-horseradish peroxidase (R&D Systems), and Tetramethylbenzidine substrate (Sigma). The reaction was stopped with […] and absorbance readings were taken at 450 nm with 570 nm as a reference wavelength. […]
(§3) RNAs were reverse-transcribed using the First Strand cDNA Synthesis Kit (Thermofisher). Transcripts were quantified by RTPCR (Sybr select Master Mix, Thermofisher) and expressed relative to UBC (human samples) or Gapdh (mouse samples) as an endogenous control using the 2^−ΔCt method.

[4] = system: COL1; assay: Spontaneous and TGFB1-induced COL1 expression in lung fibroblasts (RTPCR, ELISA); type: cell-based, human; conditions: CK666 100 μM
Experimental: as §2
Procollagen-1 (COL1) and Glyćeraldéhyde-3-phosphate déshydrogenase (GAPDH) were quantified by ELISA (DY6220 and DYC5718, R&D Systems). COL1 was expressed relative to GAPDH as an endogenous control.
as §3

[5] = system: bleomycin-induced lung fibrosis; type: in vivo, C57BL6-J mice
Experimental: Male, 8-week old C57BL6-J mice (Janvier, Le Genest-St-Ile, France) were treated with an orotracheal instillation of either 120 μg bleomycin (Laboratoires Bellon, France) or saline, under isoflurane anesthesia. In a first set of experiments, mice were treated from the 7th to the 14th day following instillation with daily subcutaneous injections of either 5 mg/kg of the Arp2/3 inhibitor CK666 (Tocris Biochemicals, Bristol, UK) in 100 μl of 40% Dimethylsulfoxide in saline (vehicle) (M. Park et al. 2013), or vehicle alone. Mice were monitored and weighted daily and their diet was supplemented with gel-based food (Dietgel Recovery gels, ClearH2O, Westbrook, Me., USA). On the 14th day following bleomycin, mice were anesthetized with 300 mg/kg Ketamine and 30 mg/kg xylazine, and euthanized by exsanguination. Bronchoalveolar lavage was performed with 2×1 ml saline. Lung were either snap-frozen in liquid nitrogen or inflation-fixed in 4% formaldehyde. Inhibition of the Arp2/3 complex in vivo. The study protocol was approved by the regional ethics board (APAFIS#5669-20 16061413402331).
Total insoluble collagen was quantified in left lung homogenates (Sircol Insoluble collagen Assay, Biocolor, Carrickfergus, UK). Soluble procollagen-1 was quantified in homogenates of the right upper lung lobe by ELISA (DY6220, R&D Systems). RNAs were extracted from the right middle lung lobe (Allprep, Qiagen) and reverse-transcribed (First Strand cDNA Synthesis Kit, Thermofisher). Transcripts associated with fibrogenesis were quantified by RTPCR (Sybr select Master Mix, Thermofisher) and expressed relative to Gapdh as an endogenous control. The activity of enzymes key to collagen polymerization and degradation was measured in lysates of right lower lobe using fluorimetric assays specific for lysil oxidase (Amplite™ Fluorimetric Lysyl Oxidase Assay, AAT Bioquest, Sunnyvale, Calif., USA) and collagenase (fluorimetric DQ collagen type 1, Sigma Aldrich, St Quentin-Fallavier, France). Clostridium histolyticum collagenase (Sigma-Aldrich) was used as a positive control for collagenase assays. Total BALF proteins were measured with the BCA protein assay (Thermofisher). BALF cells were counted using a hemocytometer. For histological analysis, 5-μm sections of paraffin-embedded lung were stained with Masson's trichrome stain.

[6] = bleomycin-instilled mice, CK666 vs vehicle
[7] = lung lysates, bleomycin-instilled mice, CK666 vs vehicle
[8] = mouse lungs, CK666 5 mg/kg daily day 7-14, RTPCR

bleomycin-induced increase in lung lysyl oxidase activity [5, 7]: not modified
lung collagenase activity [5, 7]: no effect
Compound: Cc1[nH]c2ccccc2c1CCNC(=O)c1ccccc1F [CK666]
reduction of cell growth (fold-increase in cell number relative to seeding) [1]: 36%
TGFB1-induced increase in the G/F actin ratio ([2]; TGFB1 5 ng/ml, CK666 100 μM or 4 nM siARPC2): inhibited
G/F actin ratio ([2]; unstimulated lung fibroblasts, CK666 100 μM vs DMSO or 4 nM siARPC2 vs siControl): increased
TGFB1-driven increase in ACTA2 mRNA ([3]; TGFB1 5 ng/ml 48 h, RTPCR): partially
TGFB1-driven increase in ACTA2 protein ([3]; TGFB1 5 ng/ml 48 h, cell-based ELISA): totally
expression of ACTA2 mRNA ([3]; unstimulated lung fibroblasts, CK666 100 μM, RTPCR): did not modulate
expression of ACTA2 protein ([3]; unstimulated lung fibroblasts, CK666 100 μM, cell-based ELISA): did not modulate
reduction of the TGFB1-driven increase in COL1 protein ([4]; TGFB1 5 ng/ml, ELISA, trend, p=0.13): 30%
TGFB1-driven increase in COL1A1 mRNA ([4]; TGFB1 5 ng/ml, RTPCR): did not modulate
TGFB1-driven increase in COL1A2 mRNA ([4]; TGFB1 5 ng/ml, RTPCR): did not modulate
reduction of COL1/GAPDH protein ratio ([4]; unstimulated cells, ELISA): 54%
expression of COL1A1 mRNA ([4]; unstimulated cells, RTPCR): did not modulate
expression of COL1A2 mRNA ([4]; unstimulated cells, RTPCR): did not modulate
reduction of lung content in procollagen-1 ([5]; bleomycin-instilled mice, CK666 5 mg/kg daily day 7-14 vs vehicle, ELISA): 55%
bleomycin-induced increase in BALF total protein [5, 6]: reduced neither
bleomycin-induced weight loss [5, 6]: reduced neither
lung levels of LOX mRNA [5, 6]: did not reduced
lung levels of LOXL2 mRNA [5, 6]: did not reduced
lung levels of TG2 mRNA [5, 6]: did not reduced
bleomycin-induced increase in lung Collal mRNA ([5]; bleomycin-instilled mice, CK666 vs vehicle, RTPCR relative to Gapdh): did not reduce
reduction of lung insoluble collagen ([5]; bleomycin-instilled mice, left lung, CK666 5 mg/kg daily day 7-14 vs vehicle, Sircol assay): 20%
lung expression of Arp2 mRNA [5, 8]: increased expression
lung expression of ArpCla mRNA [5, 8]: increased expression
lung expression of Arpc3 mRNA [5, 8]: increased expression
lung histology ([5]; mouse, in vivo): did not result in modifications of lung histology
